Common to all, as to format: cell-based
The subject of assay [1] is Bacillus cereus. The assay is described as follows: Agar plate disc-diffusion, antibacterial activity by inhibition zone. The protocol: (§1) The agar plate disc-diffusion method was applied. Sterilized filter papers (6 mm in diameter) were wetted with 10 μL of a solution of compounds 6-(6-bromo-2-oxo-2H-chromen-3-yl)-4-(2-chlorophenyl)-2-ethoxynicotinonitrile 1 or 6-(6-bromo-2-oxo-2H-chromen-3-yl)-4-(2-chlorophenyl)-2-methoxynicotinonitrile 2 to be tested, containing […], and the discs were allowed to air dry. The discs were then placed onto the surface of agar plates (nutrient agar for bacteria and Sabouraud's dextrose agar for fungi) seeded with the test organism. Each plate contained 15 mL of the agar medium, previously seeded with 0.2 mL of the broth culture of each organism pregrown for 18 hours. The plates were incubated at 37° C. for 48 hours, and 72 hours for fungi. The inhibition zones were measured in mm. Discs impregnated with DMSO were used as a control, and its inhibition zone was subtracted from the tested compound actual inhibition zone.
(§2) The results of the antimicrobial testing can be observed in Tables 1 and 2, below, using ciprofloxacin as a reference.
(A growth-free zone around the sample is the usual read-out of agar diffusion tests.)

The test system of assay [2] is Escherichia coli. Described as above. The protocol: as §1, §2
Assay [3] relates to Pseudomonas aeruginosa. The description is as above. The protocol:
as §1, §2

Assay [4] deals with Staphylococcus aureus. Described as above. The protocol:
as §1, §2

Assay [5] deals with Aspergillus flavus. Description: Agar plate disc-diffusion, antifungal activity by inhibition zone. As to the method:
as §1, §2

Assay [6] relates to Chrysosporium keratinophilum. The assay is described as above. The protocol: as §1, §2
The test system of assay [7] is different microbes. The assay is described as follows: Antimicrobial testing, overall conclusion. Conditions: summary of Tables 1 and 2. As to the method: as §1
Their antibacterial activity was screened against gram positive bacteria namely Bacillus cereus and Staphylococcus aureus and gram-negative bacterial strains namely Pseudomonas aeruginosa and Escherichia coli, while their antifungal activity was screened against Aspergillus flavus and Chrysosporium keratinophilum.

Setting [8] is: A = concentration of comp. = 10,000 μL.
The mark [9] stands for this setting: B = concentration of comp. = 30,000 μL.
The mark [10] stands for this setting: C = concentration of comp. = 50,000 μL.

As to `CCOc1nc(-c2cc3cc(Br)ccc3oc2=O)cc(-c2ccccc2Cl)c1C#N` [Compound 1, 6-(6-bromo-2-oxo-2H-chromen-3-yl)-4-(2-chlorophenyl)-2-ethoxynicotinonitrile], the inhibition zone in assay [1] (setting [8]) was found to be 26 mm; in assay [1] (setting [9]) it was 29 mm; in assay [1] (setting [10]), 39 mm; in assay [2] (setting [8]), 27 mm; in assay [2] (setting [9]), 38 mm; in assay [2] (setting [10]), 49 mm. In addition, the inhibition zone in assay [3] (setting [8]) was 26 mm; in assay [3] (setting [9]) it was 30 mm; in assay [3] (setting [10]), 40 mm; in assay [4] (setting [8]) it was 17 mm; in assay [4] (setting [9]) it was 20 mm; in assay [4] (setting [10]), 36 mm. Besides, the inhibition zone is reported as 19 mm in assay [5] (setting [8]); 21 mm in assay [5] (setting [9]); 29 mm in assay [5] (setting [10]); 26 mm in assay [6] (setting [8]); 27 mm in assay [6] (setting [9]); 38 mm in assay [6] (setting [10]). In assay [7], the antimicrobial activities entry is listed as “high antimicrobial activities”.

In the case of `O=C(O)c1cn(C2CC2)c2cc(N3CCNCC3)c(F)cc2c1=O` [Cip., ciprofloxacin, reference compound], the inhibition zone is given as 29 mm in assay [1] (setting [8]); 30 mm in assay [1] (setting [9]); 42 mm in assay [1] (setting [10]); 30 mm in assay [2] (setting [8]); 39 mm in assay [2] (setting [9]); 60 mm in assay [2] (setting [10]). In addition, the inhibition zone in assay [3] (setting [8]) is reported as 29 mm; in assay [3] (setting [9]), 30 mm; in assay [3] (setting [10]), 53 mm; in assay [4] (setting [8]), 43 mm; in assay [4] (setting [9]), 44 mm; in assay [4] (setting [10]), 53 mm. In addition, the inhibition zone in assay [5] (setting [8]) was 29 mm; in assay [5] (setting [9]), 30 mm; in assay [5] (setting [10]) it was 42 mm; in assay [6] (setting [8]), 29 mm; in assay [6] (setting [9]), 30 mm; in assay [6] (setting [10]), 53 mm.

For the compound `COc1nc(-c2cc3cc(Br)ccc3oc2=O)cc(-c2ccccc2Cl)c1C#N` [Compound 2, 6-(6-bromo-2-oxo-2H-chromen-3-yl)-4-(2-chlorophenyl)-2-methoxynicotinonitrile], the inhibition zone in assay [1] (setting [8]) worked out at 25 mm; in assay [1] (setting [9]), 30 mm; in assay [1] (setting [10]), 39 mm; in assay [2] (setting [8]) it was 27 mm; in assay [2] (setting [9]), 35 mm; in assay [2] (setting [10]), 46 mm. Also, the inhibition zone in assay [3] (setting [8]) was 26 mm; in assay [3] (setting [9]), 33 mm; in assay [3] (setting [10]), 39 mm; in assay [4] (setting [8]), 16 mm; in assay [4] (setting [9]), 24 mm; in assay [4] (setting [10]), 32 mm. The inhibition zone in assay [5] (setting [8]) came out at 25 mm; in assay [5] (setting [9]), 28 mm; in assay [5] (setting [10]) it was 39 mm; in assay [6] (setting [8]), 22 mm; in assay [6] (setting [9]) it was 28 mm; in assay [6] (setting [10]), 41 mm. Also, in assay [7], the antimicrobial activities entry was “high antimicrobial activities”.

These data come from patent US11905278B1, “6-(6-bromo-2-oxo-2H-chromen-3-yl)-4-(2-chlorophenyl)-2-alkoxynicotinonitrile as an antimicrobial compound” (KING FAISAL UNIVERSITY, priority 2023, dated 2024).
